According to patent publication US20040096423A1, “Use of a triple combination comprising a 5ht3 antagonist, a 5ht4agonist and a laxative for promoting intestinal lavage” (priority 2000, published 2004):
pEC50: −log10 of the molar value.

How the values were obtained:
[1] = system: dogs; experiment: Measurement of onset of liquid stool in dogs challenged with KleanPrep; assay type: in vivo, dog; settings: for ED50: Canis lupus familiaris, read-out: ED50 for liquid stools within 6 hours after administration of KleanPrep
Method: Measurement of Onset of Liquid Stool
The dogs were orally or subcutaneously pretreated with test compounds or distilled water (0.5 ml/kg) and 1 hour later challenged by gavage with KleanPrep™ (standard volume: 2×200 ml at a 15 minutes interval). The time interval at which the first liquid stool occurred was noted (in minutes after the first administration of KleanPrep™) up to 6 hours after challenge.
The KleanPrep™ preparation consisted of polyethyleneglycol 3350 (59.000 g/l), sodium sulphate (5.685 g/l), sodium hydrogencarbonate (1.685 g/l), sodium chloride (1.465 g/l), potassium chloride (0.7425 g/l), aspartate (0.0494 g/l) and vanilla (0.3291 g/l).
In a pilot study on five dogs, large volumes of KleanPrep™ (1400, 1400, 1800, 2800, 2800 ml) and relatively long time intervals (95, 101, 124, 211 and 305 minutes after KleanPrep™) were required to obtain liquid stools within an observation period of 6 hours. In the present experiments, a standard volume of 400 ml KleanPrep™ solution (2×200 ml at a 15 minutes interval) was used. Under these conditions, liquid stools were not observed up to 6 hours after KleanPrep™, neither in 40 control dogs pretreated with a single dose of distilled water (0.5 ml/kg, p.o., −1 hour), nor in 35 control dogs pretreated with two doses of distilled water (0.5 ml/kg, p.o., −1 hour) immediately after each other, nor in 10 dogs pretreated with a dose of distilled water (0.5 ml/kg, p.o., −1 hour) and a dose of saline (0.5 ml/kg, s.c., −1 hour), nor in 5 dogs treated with two doses of distilled water (0.5 ml/kg, p.o., −1 hour) and a dose of saline (0.5 ml/kg, s.c., −1 hour).

[2] = target: T1, 5HT4 receptor (Cavia porcellus, UniProt O70528); experiment: Electrically stimulated guinea-pig ileum longitudinal muscle-myenteric plexus strips (titled in vitro binding affinity for the 5HT4 receptor); assay type: cell-based; settings: submaximal electrical stimulation
T1 construct: The longitudinal muscle layer with myenteric plexus was removed; from tissue; host or cells: guinea-pig ileum longitudinal muscle with myenteric plexus
From the text: Dunkin-Hartley guinea-pigs of either sex (weighing between 600-900 g) were killed by decapitation. The ileum was removed and cleansed with warmed and oxygenated Krebs-Henseleit solution. Parts of the ileum (15 cm) were slipped over a glass pipette. The longitudinal muscle layer with myenteric plexus was removed by means of a cotton thread moistened with Krebs solution. Strips with a length of 8 cm were folded and these strips (4 cm) were mounted between two platinum electrodes (8 cm length, 0.5 cm apart). […] The preparations were excited with single rectangular stimuli [1 ms; 0.1 Hz; submaximal response (current leading to 80% of maximal response), from a programmable stimulator (Janssen Scientific Instruments Division)]. Contractions were measured isometrically (Statham UC2, Janssen Scientific Instruments amplifier, Kipp BD-9 pen-recorder). During the stabilization period of 30 minutes, the strips were repeatedly stretched, in order to obtain a steady state tension of 1.5 g. Before starting the electrical stimulation, a cumulative concentration response curve of acetylcholine (3.10^−9, 10^−8, 3.10^−8 and 10^−7 M) was given. The bath fluid was replaced with fresh Krebs solution and the strips were allowed to stabilize for another 30 minutes. Subsequently, the strips were stimulated electrically (power stimulator) at a frequency of 0.1 Hz for 1 ms. […]

[3] = of 35 dogs, Compound A 0.01 mg/kg p.o. + distilled water, 1 h before KleanPrep
[4] = dogs pretreated with Compound A 0.01 mg/kg, 5HT4 agonist co-administered, + KleanPrep
[5] = dogs pretreated with Compound A 0.01 mg/kg, 5HT4 agonist co-administered, + KleanPrep, shortest median reached (down to)
[6] = dogs, 5HT4 agonist alone 1 h before KleanPrep 2×200 ml

T1 sequence (O70528 whole entry): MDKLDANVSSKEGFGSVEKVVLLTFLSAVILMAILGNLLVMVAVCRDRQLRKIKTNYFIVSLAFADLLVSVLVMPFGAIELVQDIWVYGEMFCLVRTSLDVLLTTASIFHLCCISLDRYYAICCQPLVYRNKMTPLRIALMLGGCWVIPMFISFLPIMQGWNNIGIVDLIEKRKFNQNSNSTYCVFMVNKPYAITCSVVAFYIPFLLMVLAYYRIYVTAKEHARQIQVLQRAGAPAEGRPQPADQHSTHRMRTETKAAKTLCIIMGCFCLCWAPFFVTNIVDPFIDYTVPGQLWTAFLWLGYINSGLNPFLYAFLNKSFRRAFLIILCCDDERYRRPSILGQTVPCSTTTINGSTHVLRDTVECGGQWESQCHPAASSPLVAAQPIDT

Structure (SMILES)	median onset of the first liquid stool after administration of KleanPrep ([1]; dogs, Compound A 0.01 mg/kg p.o. + KleanPrep, no 5HT4 agonist (control))	number of dogs displaying liquid stools within 1 hour [1, 3]	number of dogs displaying liquid stools within 6 hours [1, 3]	pEC50 [2]	ED50 for liquid stools within 1 hour [1, 4]	median onset of the first liquid stool after administration of KleanPrep [1, 5]	dose up to which liquid stools were not induced over the 6 hour observation period [1, 6]	ED50 [1, 6]	dose up to which liquid stools within 1 hour were not obtained [1, 6]
CO[C@@H]1CN(CCCNc2nccc(=O)[nH]2)CC[C@@H]1NC(=O)c1cc(Cl)c(N)c2c1OC(C)(C)C2 (relative stereo) [Compound A, (−)-cis-4-amino-5-chloro-2,3-dihydro-N-[1-[3-[(3,4-dihydro-4-oxo-2-pyrimidinyl)-amino]propyl]-3-methoxy-4-piperidinyl]-2,2-dimethyl-7-benzofurancarboxamide]	125 min	two	Thirty-three						
COCCCN1CC[C@@H](CNC(=O)c2cc(Cl)c(N)c3c2OC(C)(C)C3)[C@H](O)C1 [Compound B, (3S-trans)-4-amino-5-chloro-2,3-dihydro-N-[[3-hydroxy-1-(3-methoxypropyl)-4-piperidinyl]methyl]-2,2-dimethyl-7-benzofuran-carboxamide]				8.80	0.0014 mg/kg	29 min	> 2.5 mg/kg		
COc1cc(N)c(Cl)cc1C(=O)NC1CCN(CCCOc2ccc(F)cc2)CC1OC (centres unmarked) [cisapride]					0.056 mg/kg	24 min		0.89 mg/kg	
COCCCN1CCC(NC(=O)c2cc(Cl)c(N)c3c2OCC3)CC1 [prucalopride]					0.22 mg/kg	32 min		2.3 mg/kg	> 5 mg/kg
